According to PubChem BioAssay (NCI):
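Growth conditions: 96-well plates. Treatment: test compound, 48 hours, 5 concentrations. Analysis: linear interpolation between bracketing concentrations; unreached endpoints set to highest concentration. GI50 marks 50% less growth. The concentration for full growth arrest is given as TGI.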

What was measured:
Assay in all cases: NCI anticancer screen, dose series, 48 h
[1] = tested on: A549 NSCLC
[2] = tested on: HCT-116 colon
[3] = tested on: MALME-3M melanoma
[4] = tested on: MDA-MB-435
[5] = tested on: OVCAR-3 ovarian
[6] = tested on: OVCAR-8 ovarian
[7] = tested on: RXF 393 renal
[8] = tested on: SK-MEL-5 melanoma
[9] = tested on: UACC-257 melanoma
[10] = tested on: UO-31 renal

SMILES | GI50 [1] [µM] | TGI [1] [µM] | GI50 [2] [µM] | TGI [2] [µM] | GI50 [3] [µM] | TGI [3] [µM] | GI50 [4] [µM] | TGI [4] [µM] | GI50 [5] [µM] | TGI [5] [µM] | GI50 [6] [µM] | TGI [6] [µM] | GI50 [7] [µM] | TGI [7] [µM] | GI50 [8] [µM] | TGI [8] [µM] | GI50 [9] [µM] | TGI [9] [µM] | GI50 [10] [µM] | TGI [10] [µM]
Fc1ccc(-c2ncn(C3CCNCC3)c2-c2ccnc(Oc3ccc4c(c3)OCO4)n2)cc1 | 16.4 | > 25 | 16.8 | > 25 | 21.4 | > 25 | > 19.5 | > 25 | > 25 | > 25 | > 25 | > 25 | 7.88 | > 25 | 3.77 | 8.4 | 10.5 | > 25 | 7.81 | > 25
c1ccc(-c2nn3c(c2-c2ccnc4cc(OCCN5CCOCC5)ccc24)CCC3)nc1 | 43.8 | > 100 | 31 | > 100 | 90.3 | > 100 | 25.8 | > 100 | > 69.9 | > 100 | > 82.6 | > 100 | > 100 | > 100 | 43.9 | > 100 | > 100 | > 100 | 10.8 | > 100
O=[N+]([O-])c1cc[n+]([O-])c2ccccc12 | 0.149 | 0.584 | 0.0698 | 0.316 | 0.147 | 1.12 | 0.436 | 1.31 | 0.197 | 0.471 | 0.33 | 2.12 | 0.211 | 0.619 | 0.184 | 0.437 | 0.229 | 0.77 | 0.191 | 0.604
Oc1c(C(Nc2ccccc2Br)c2ccccc2)ccc2cccnc12 (stereo not given) | 2.46 | > 100 | 3.13 | 18 | 4.42 | 29.2 | 4 | 70.2 | 5.37 | 23.9 | 2.11 | > 100 | 1.97 | 20.9 | 1.72 | 7.38 | 1.88 | 8.48 | 1.32 | 45.8
O=c1c2c([nH]c3nccn13)CCC2 |  | > 10 |  | > 10 |  | > 10 |  | > 10 |  | > 10 |  | > 10 |  | > 10 |  | > 10 |  | > 10 |  | > 10
[2H]C([2H])([2H])NC(=O)c1nnc(NC(=O)C2CC2)cc1Nc1cccc(-c2ncn(C)n2)c1OC | 50.1 | > 100 | 9.79 | > 100 | 98 | > 100 | 56.7 | > 100 | 41.3 | > 100 | 27.4 | > 100 | 6.04 | > 100 | 50.2 | > 100 | > 100 | > 100 | 5.93 | 60.4
C1=C(c2ccccc2)C(N2CCOCC2)Oc2ccccc21 (stereo not given) |  | > 100 |  | > 100 |  | > 100 |  | > 100 |  | > 100 |  | > 100 |  | > 100 |  | > 100 |  | > 100 |  | > 100
CCCCNNC(=O)c1ccc(Br)cc1 | 5.34 | > 50 | 1.47 | 13.4 | 1.7 | > 50 | 2.21 | > 50 | 5.26 | > 50 | 1.5 | > 50 | 4.53 | 30.4 | 1.94 | 7.77 | 0.639 | 7.34 | 2.36 | > 35.1
